Measurements published in ChEMBL document CHEMBL3044943, “Nematicidal prenylated flavanones from Phyllanthus niruri” (2008).
≈ marks a conversion by molar mass, not a printed value.

What was measured:
Rotylenchulus reniformis = assay: Nematicidal activity against Rotylenchulus reniformis (reniform nematode) after 72 hr; assay type: functional
Meloidogyne incognita = assay: Nematicidal activity against Meloidogyne incognita (root-knot nematode) second stage juveniles after 72 hr; assay type: functional

SMILES	LC50 (Rotylenchulus reniformis) [µg/mL]	LC50 (Meloidogyne incognita) [µg/mL]
CC(C)=CCc1cccc2c1OC(c1ccccc1)CC2=O (stereo not given)	103 (≈ 352 µM)	70.9 (≈ 242 µM)
CC(C)=CCc1cccc2c1OC(c1ccc(O)cc1)CC2=O (stereo not given)	3.3 (≈ 10.7 µM)	14.5 (≈ 47 µM)
CNC(=O)Oc1cccc2c1OC(C)(C)C2 [CARBOFURAN]	3.1 (≈ 14 µM)	–
